The assay concerns P388 leukemia ip, CD2F1 mice, survival T/C. The assay can be described thus: NCI In Vivo Anticancer Drug Screen. Data for tumor model P388 Leukemia (intraperitoneal) in CD2F1 (CDF1) mice. The conditions noted are these: endpoint: median survival time, higher = longer survival. The method in brief: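 Mice carrying the transplanted tumor received test compound or vehicle. Survival was recorded in each group, and the value is the treated-group measurement divided by that of the vehicle-treated control group.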

Setting [1] is: dose: 60.0 mg/kg/injection, schedule: Q01DX005 (ip), vehicle: saline with Tween-80.
The mark [2] stands for this setting: dose: 50.0 mg/kg/injection, schedule: Q01DX009 (ip), vehicle: saline with Tween-80.
The mark [3] stands for this setting: dose: 100.0 mg/kg/injection, schedule: Q01DX009 (ip), vehicle: saline with Tween-80.
[4] abbreviates: dose: 200.0 mg/kg/injection, schedule: Q01DX009 (ip), vehicle: saline with Tween-80.

Several values for one entry are separate records, joined by “and”; a condition that tells them apart may be missing. Equal entries are not always repeated. Toxic doses and inconclusive results are not listed.

For the molecule `CS(=O)(=O)N1CCCN(S(C)(=O)=O)COC1`, the T/C reads like this: under setting [1], 99 % of control; (dose: 120.0 mg/kg/injection, schedule: Q01DX005 (ip), vehicle: saline with Tween-80) 101 % of control; (dose: 240.0 mg/kg/injection, schedule: Q01DX005 (ip), vehicle: saline with Tween-80) 101 % of control.

Take `CC(O)CC1(c2ccccc2)C(=O)NC(=O)NC1=O` (centres undefined): the T/C under setting [2] is 98 % of control, the T/C under setting [3] is 98 % of control and the T/C under setting [4] was 95 % of control.

With `O=C1Cc2ccccc2C(O)=C1c1cnccn1`, the T/C by setting is: (dose: 15.0 mg/kg/injection, schedule: Q01DX005 (ip), vehicle: saline with Tween-80) 93 % of control; (dose: 30.0 mg/kg/injection, schedule: Q01DX005 (ip), vehicle: saline with Tween-80) 99 % of control; under setting [1], 101 % of control and 102 % of control.

Take `O=c1ccccc(Br)c1O`: the T/C was 100 % of control (dose: 25.0 mg/kg/injection, schedule: Q01DX005 (ip), vehicle: Klucel (hydroxypropylcellulose) (HPC)); 106 % of control (dose: 50.0 mg/kg/injection, schedule: Q01DX005 (ip), vehicle: Klucel (hydroxypropylcellulose) (HPC)); 106 % of control (dose: 100.0 mg/kg/injection, schedule: Q01DX005 (ip), vehicle: Klucel (hydroxypropylcellulose) (HPC)).

As to `CCOC(=O)c1cc(N(CCCl)CCCl)ccc1OC(=O)CC`, the T/C is, setting by setting: (dose: 50.0 mg/kg/injection, schedule: Q04DX003 (ip), vehicle: Klucel (hydroxypropylcellulose) (HPC)) 100 % of control; (dose: 100.0 mg/kg/injection, schedule: Q04DX003 (ip), vehicle: Klucel (hydroxypropylcellulose) (HPC)) 100 % of control; (dose: 200.0 mg/kg/injection, schedule: Q04DX003 (ip), vehicle: Klucel (hydroxypropylcellulose) (HPC)) 97 % of control.

As to `C=C1Sc2ccccc2N1C`, the T/C is 111 % of control (dose: 6.25 mg/kg/injection, schedule: Q01DX009 (ip), vehicle: Klucel (hydroxypropylcellulose) (HPC)); 107 % of control and 114 % of control (dose: 12.5 mg/kg/injection, schedule: Q01DX009 (ip), vehicle: Klucel (hydroxypropylcellulose) (HPC)); 123 % of control (dose: 25.0 mg/kg/injection, schedule: Q01DX009 (ip), vehicle: Klucel (hydroxypropylcellulose) (HPC)).

With `N#CC1=C(Nc2ccccc2Cl)SC(c2ccncc2)NC1=O` (centres undefined), the T/C by setting is: (dose: 120.0 mg/kg/injection, schedule: Q01DX005 (ip), vehicle: Klucel (hydroxypropylcellulose) (HPC)) 111 % of control; (dose: 240.0 mg/kg/injection, schedule: Q01DX005 (ip), vehicle: Klucel (hydroxypropylcellulose) (HPC)) 105 % of control.

As for `CC(=O)C1(O)Cc2c(O)c3c(c(O)c2C(OC2CC(N)C(O)C(C)O2)C1)C(=O)c1ccccc1C3=O` (centres undefined), the T/C was 116 % of control (dose: 0.03 mg/kg/injection, schedule: Q01DX009 (ip), vehicle: water); 150 % of control and 155 % of control and 158 % of control (dose: 0.1 mg/kg/injection, schedule: Q01DX009 (ip), vehicle: water); 151 % of control (dose: 0.12 mg/kg/injection, schedule: Q01DX005 (ip), vehicle: water); 106 % of control (dose: 0.15 mg/kg/injection, schedule: Q04DX003 (ip), vehicle: water); 167 % of control and 171 % of control and 183 % of control (dose: 0.2 mg/kg/injection, schedule: Q01DX009 (ip), vehicle: water); 166 % of control (dose: 0.21 mg/kg/injection, schedule: Q04DX003 (ip), vehicle: water). The T/C runs as follows: (dose: 0.25 mg/kg/injection, schedule: Q01DX005 (ip), vehicle: water) 164 % of control; (dose: 0.3 mg/kg/injection, schedule: Q04DX003 (ip), vehicle: water) 114 % of control; (dose: 0.36 mg/kg/injection, schedule: Q04DX003 (ip), vehicle: water) 170 % of control; (dose: 0.39 mg/kg/injection, schedule: Q01DX009 (ip), vehicle: water) 170 % of control; (dose: 0.4 mg/kg/injection, schedule: Q01DX009 (ip), vehicle: water) 205 % of control; (dose: 0.5 mg/kg/injection, schedule: Q01DX005 (ip), vehicle: water) 180 % of control. For the same molecule, the T/C is, setting by setting: (dose: 0.5 mg/kg/injection, schedule: Q01DX005 (oral), vehicle: water) 104 % of control; (dose: 0.6 mg/kg/injection, schedule: Q04DX003 (ip), vehicle: water) 118 % of control; (dose: 0.78 mg/kg/injection, schedule: Q01DX009 (ip), vehicle: water) 173 % of control; (dose: 1.0 mg/kg/injection, schedule: Q01DX005 (ip), vehicle: water) 114 % of control; (dose: 1.0 mg/kg/injection, schedule: Q01DX005 (oral), vehicle: water) 107 % of control; (dose: 1.3 mg/kg/injection, schedule: Q01DX001 (ip), vehicle: water) 97 % of control. In addition, the T/C runs as follows: (dose: 1.8 mg/kg/injection, schedule: Q01DX001 (ip), vehicle: water) 97 % of control; (dose: 2.0 mg/kg/injection, schedule: Q01DX005 (oral), vehicle: water) 112 % of control; (dose: 2.4 mg/kg/injection, schedule: Q04DX003 (ip), vehicle: water) 152 % of control and 174 % of control; (dose: 4.0 mg/kg/injection, schedule: Q01DX005 (oral), vehicle: water) 152 % of control; (dose: 4.8 mg/kg/injection, schedule: Q04DX003 (ip), vehicle: water) 102 % of control and 106 % of control; (dose: 8.0 mg/kg/injection, schedule: Q01DX005 (oral), vehicle: water) 107 % of control. Under “dose: 9.6 mg/kg/injection, schedule: Q04DX003 (ip), vehicle: water”, the T/C was 96 % of control.

`O=C1CC2(C(=O)O1)C1C(=O)OC(=O)C1C1C=CC=NN12` (centres undefined): the T/C by setting is: (dose: 25.0 mg/kg/injection, schedule: Q01DX009 (ip), vehicle: saline with Tween-80) 90 % of control; under setting [2], 93 % of control; under setting [3], 93 % of control.

Take `CCCCCCCCSP(SCCCCCCCC)SCCCCCCCC`: the T/C is 113 % of control under setting [2]; 106 % of control under setting [3]; 96 % of control (dose: 100.0 mg/kg/injection, schedule: Q01DX009 (ip), vehicle: saline); 103 % of control under setting [4]; 102 % of control and 91 % of control (dose: 200.0 mg/kg/injection, schedule: Q01DX009 (ip), vehicle: saline).

`c1ccc2[nH]c(N=Nc3cccc4ccccc34)cc2c1`: the T/C reads like this: (dose: 25.0 mg/kg/injection, schedule: Q01DX009 (ip), vehicle: other) 93 % of control and 95 % of control; (dose: 50.0 mg/kg/injection, schedule: Q01DX009 (ip), vehicle: other) 100 % of control; under setting [2], 99 % of control; (dose: 100.0 mg/kg/injection, schedule: Q01DX009 (ip), vehicle: other) 100 % of control and 94 % of control; under setting [3], 108 % of control and 115 % of control; (dose: 200.0 mg/kg/injection, schedule: Q01DX009 (ip), vehicle: other) 98 % of control and 100 % of control. Also, the T/C was 115 % of control under setting [4] and 98 % of control (dose: 400.0 mg/kg/injection, schedule: Q01DX009 (ip), vehicle: saline with Tween-80).

As to `O=C1C(Br)=C(Br)C(=O)C1(Br)Br`, the T/C (dose: 6.25 mg/kg/injection, schedule: Q01DX009 (ip), vehicle: saline with Tween-80) was 118 % of control; the T/C (dose: 6.25 mg/kg/injection, schedule: Q04DX003 (ip), vehicle: saline with Tween-80) was 100 % of control; the T/C (dose: 12.5 mg/kg/injection, schedule: Q04DX003 (ip), vehicle: saline with Tween-80) is 100 % of control; the T/C (dose: 25.0 mg/kg/injection, schedule: Q04DX003 (ip), vehicle: saline with Tween-80) is 120 % of control.

On to `C[n+]1c(C[n+]2ccccc2)ccc2ccccc21`, for which the T/C by setting is: (dose: 50.0 mg/kg/injection, schedule: Q01DX005 (ip), vehicle: saline) 105 % of control; (dose: 100.0 mg/kg/injection, schedule: Q01DX005 (ip), vehicle: saline) 106 % of control.

Consider `COC(=O)c1nn(-c2ccccc2)c2nc3ccccc3c-2c1C(=O)OC`, for which the T/C runs as follows: (dose: 100.0 mg/kg/injection, schedule: Q04DX002 (ip), vehicle: saline with Tween-80) 108 % of control; (dose: 200.0 mg/kg/injection, schedule: Q04DX002 (ip), vehicle: saline with Tween-80) 108 % of control; (dose: 400.0 mg/kg/injection, schedule: Q04DX002 (ip), vehicle: saline with Tween-80) 97 % of control.

Take `CC(C)C1=CC(=O)C2=C(CCC3C(C)(C(=O)O)CCC[C@]23C)C1=O` (some centres undefined): the T/C is 102 % of control (dose: 6.0 mg/kg/injection, schedule: Q01DX005 (ip), vehicle: Klucel (hydroxypropylcellulose) (HPC)); 104 % of control (dose: 12.0 mg/kg/injection, schedule: Q01DX005 (ip), vehicle: Klucel (hydroxypropylcellulose) (HPC)); 100 % of control (dose: 24.0 mg/kg/injection, schedule: Q01DX005 (ip), vehicle: Klucel (hydroxypropylcellulose) (HPC)); 99 % of control (dose: 48.0 mg/kg/injection, schedule: Q01DX005 (ip), vehicle: Klucel (hydroxypropylcellulose) (HPC)).
